Laboratory results: paper PMC3693772, “Protein expression, biochemical pharmacology of signal transduction, and relation to intraocular pressure modulation by bradykinin B2 receptors in ciliary muscle” (Molecular Vision, 2013)
Square brackets hold non-standard residues; d marks the D form. Peptide text beside a SMILES is read from it. * marks the point of attachment. X1 = COc1ccc(C[C@@H](CN[C@@H](CCCNC(=N)N)C(=O)O)N*)cc1; Hyp = O=C(O)[C@@H]1C[C@@H](O)CN1; 2Thi = N[C@@H](Cc1cccs1)C(=O)O

Key:
primary h-CM cells = format: cell-based, human; details: for Effect on background level of total PGs, h-CM cells: alone, up to 100 nM, single experiment; for Effect on total PGs induced by 1 µM BK, h-CM cells: pretreatment, challenge with 1 µM BK
Method: (§1) Measurement of prostaglandins in human ciliary muscle and Chinese hamster ovary cells expressing B2 receptors
(§2) This involved stimulating h-CM cells and CHO-B2 cells with various concentrations of test peptides and measuring the release of various PGs in the extracellular medium. The concentration-dependent effects of these peptides on total PGs, and specifically PGE2, PGF2α, and PGD2 release, were studied. Cells were grown as a monolayer in a 24-well plate (precoated with fibronectin) to confluence and subsequently serum-starved overnight before the experiment. On the day of the experiment, just before the drug was added, the wells were aspirated completely, and 990 µl basal medium and 10 µl 100× series of concentrations of the different peptide agonists were added to achieve the desired final concentrations of each compound (e.g., 0.1 nM to 10 µM). […] At the end of the incubation period, the cellular supernatants were collected and stored at −80 °C or used immediately to determine the PG content. Cell supernatants were tested for total PG levels and sub-species of PGs (PGE2, PGF2α, and PGD2) using specific competitive enzyme immunoassays (Cayman Chemical Co., Ann Arbor, MI) as directed in the manufacturer’s recommended protocols using the supplied standards and reagents. The limits of detection for various PGs were as follows: total PGs=29 pg/ml; PGE2=15 pg/ml; PGF2α=9 pg/ml; PGD2=200 pg/ml.

[1] = system: CHO-B2 cells (human cloned B2 receptor); format: cell-based, Chinese hamster ovary cells; details: compound on its own
Method: as §1, §2

COX-1 and COX-2 = details: ref [43]; cited from earlier work
human cloned B2 receptor = target: T1, human cloned B2 receptor (Homo sapiens, UniProt P30411); test: [^3H]-BK binding to human cloned B2 receptor (CHO-B2 membranes); details: 0.2 nM [^3H]-BK, CHO-B2 homogenates 2.5 µg protein, 60 min, 23 °C, 50 mM Tris/HCl pH 7.4; mean±SEM, up to 19 experiments; read-out: Ligand binding inhibition constant at human cloned B2 receptors (Ki)
T1 construct: purchased Euroscreen, Gosselies, Belgium; host or cells: CHO cells (recombinant, CHO-B2), used as cell homogenates/membranes
T1 sequence (P30411 1-391): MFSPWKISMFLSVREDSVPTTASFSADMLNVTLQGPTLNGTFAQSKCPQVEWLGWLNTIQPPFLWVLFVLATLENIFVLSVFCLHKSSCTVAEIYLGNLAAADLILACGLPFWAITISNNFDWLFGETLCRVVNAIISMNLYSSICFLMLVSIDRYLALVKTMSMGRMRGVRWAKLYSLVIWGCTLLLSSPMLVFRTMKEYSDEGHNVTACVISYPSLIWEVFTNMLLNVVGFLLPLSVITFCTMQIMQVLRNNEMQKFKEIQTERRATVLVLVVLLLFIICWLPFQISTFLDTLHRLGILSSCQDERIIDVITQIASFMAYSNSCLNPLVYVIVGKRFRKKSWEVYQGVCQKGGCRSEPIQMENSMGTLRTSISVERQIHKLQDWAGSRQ
Method: However, in view of the difficulty of obtaining sufficient h-CM cells for these initial studies, we decided to use cell membranes of Chinese hamster ovary cells containing the human cloned B2 receptor (CHO-B2; Euroscreen, Gosselies, Belgium). […] Following this incubation, the samples were filtered rapidly under vacuum through glass fiber filters (PerkinElmer) presoaked with 0.3% polyethyleneimine and rinsed several times with an ice-cold 50 mM Tris-HCl buffer using a 96-sample cell harvester (TomTec; Gaithersburg, MD). The filters were air-dried and the radioactivity counted in a beta-scintillation counter (TopCount, PerkinElmer). Data were analyzed using a sigmoidal-fit, iterative algorithm of a computer program designed to automatically fit the new data (Activity base; IDBS, Surrey, UK).

Ki (human cloned B2 receptor)	SMILES	Effect on background level of total PGs, h-CM cells (primary h-CM cells)	Effect on total PGs induced by 1 µM BK, h-CM cells (primary h-CM cells; three experiments)	PG production/release by compound alone, CHO-B2 cells [1]	COX-1/COX-2 inhibition selectivity (COX-1 and COX-2)	Effect on BK concentration-response of PG release, h-CM cells (primary h-CM cells; 1 µM final, preincubated 5 min, three experiments)
73 ± 24.7 nM	CSCC[C@H](N)C(=O)N[C@@H](CCCCN)C(=O)N[C@@H](CCCNC(=N)N)C(=O)N1CCC[C@H]1C(=O)N1CCC[C@H]1C(=O)NCC(=O)N[C@@H](Cc1ccccc1)C(=O)N[C@@H](CO)C(=O)N1CCC[C@H]1C(=O)N[C@@H](Cc1ccccc1)C(=O)N[C@@H](CCCNC(=N)N)C(=O)O [Met-Lys-BK]	–	–	–	–	–
11.3 ± 1.1 nM	COc1ccc(C[C@@H](CN[C@@H](CCCNC(=N)N)C(=O)O)NC(=O)[C@@H]2CCCN2C(=O)[C@H](CO)NC(=O)[C@H](Cc2cccs2)NC(=O)CNC(=O)[C@@H]2C[C@@H](O)CN2C(=O)[C@@H]2CCCN2C(=O)[C@@H](N)CCCNC(=N)N)cc1 [RMP-7] (H-RP[Hyp]G[2Thi]SP-X1)	–	–	–	–	–

Further lines, the compound ahead of its results:

SMILES	Ki (human cloned B2 receptor)	Effect on background level of total PGs, h-CM cells (primary h-CM cells)	Effect on total PGs induced by 1 µM BK, h-CM cells (primary h-CM cells; three experiments)	PG production/release by compound alone, CHO-B2 cells [1]	COX-1/COX-2 inhibition selectivity (COX-1 and COX-2)	Effect on BK concentration-response of PG release, h-CM cells (primary h-CM cells; 1 µM final, preincubated 5 min, three experiments)
CC(C(=O)O)c1ccc(-c2ccccc2)c(F)c1 (stereo not drawn) [flurbiprofen]	–	inhibited the background level of total PGs	concentration-dependent reduction in total PGs synthesized and secreted, with flurbiprofen much more potent than bromfenac	failed to influence PG production	equally blocks COX-1 and COX-2	–
NCCCC[C@H](N)C(=O)N[C@@H](CCCN=C(N)N)C(=O)N1CCC[C@H]1C(=O)N1CCC[C@H]1C(=O)NCC(=O)N[C@@H](Cc1ccccc1)C(=O)N[C@@H](CO)C(=O)N1CCC[C@H]1C(=O)N[C@@H](Cc1ccccc1)C(=O)N[C@@H](CCCN=C(N)N)C(=O)O [Lys-BK]	1.8 ± 0.7 nM	–	–	–	–	–
Nc1c(CC(=O)O)cccc1C(=O)c1ccc(Br)cc1 [bromfenac]	–	inhibited the background level of total PGs	concentration-dependent reduction in total PGs synthesized and secreted	failed to influence PG production	COX-2-selective	completely abolished PG synthesis and release
